Tests used:
DNA topoisomerase 1 [1] = biological target: T1, DNA topoisomerase 1 (Homo sapiens, UniProt P11387); test: Inhibition of Topoisomerase I by cleavage complex formation in human HL-60 cells; format: cell-based
T1 sequence (P11387 whole entry): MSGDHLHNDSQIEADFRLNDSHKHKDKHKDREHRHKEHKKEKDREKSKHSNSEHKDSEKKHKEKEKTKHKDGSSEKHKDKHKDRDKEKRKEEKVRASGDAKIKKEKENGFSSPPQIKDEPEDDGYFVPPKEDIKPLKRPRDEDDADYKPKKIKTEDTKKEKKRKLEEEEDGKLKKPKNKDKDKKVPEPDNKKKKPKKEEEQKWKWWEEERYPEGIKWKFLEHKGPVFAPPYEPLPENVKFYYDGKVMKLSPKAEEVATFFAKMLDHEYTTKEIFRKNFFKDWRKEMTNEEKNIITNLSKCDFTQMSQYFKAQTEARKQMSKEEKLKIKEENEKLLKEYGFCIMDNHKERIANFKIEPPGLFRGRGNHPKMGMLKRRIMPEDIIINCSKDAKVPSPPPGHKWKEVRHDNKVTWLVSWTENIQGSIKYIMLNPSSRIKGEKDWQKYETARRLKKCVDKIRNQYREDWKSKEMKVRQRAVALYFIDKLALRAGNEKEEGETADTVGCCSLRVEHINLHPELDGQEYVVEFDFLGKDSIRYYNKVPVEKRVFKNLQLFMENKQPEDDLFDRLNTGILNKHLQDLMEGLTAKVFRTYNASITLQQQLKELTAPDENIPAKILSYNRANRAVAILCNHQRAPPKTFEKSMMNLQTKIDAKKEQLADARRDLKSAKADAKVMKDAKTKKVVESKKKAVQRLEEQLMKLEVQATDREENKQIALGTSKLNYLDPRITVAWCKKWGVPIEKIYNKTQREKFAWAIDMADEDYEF

DNA topoisomerase 1 [2] = biological target: T1, DNA topoisomerase 1; test: Inhibition of Topoisomerase I by cleavage complex formation in intact human HL-60 cells; format: cell-based
L1210 [3] = test: Log of initial tumor cell population minus log of tumor cell population at end of treatment after i.v. drug dosing on hours 1 and 5; format: functional, Mus musculus
L1210 [4] = test: Toxic dose in L1210 murine lymphoid leukemia at 20 mg/kg after i.v. drug dosing on hours 1 and 5; NT means not toxic; format: toxicity, organism-based; set-up: dose 20 mg/kg, route intravenous; conditions: mouse, in vivo, iv
Mus musculus [5] = test: Highest active dose in L1210 lymphoid leukemic mice at range of 1.25-20 mg/kg after i.v. drug dosing on hours 1 and 5; format: functional
Mus musculus [6] = test: Number of L1210 mice cured after i.v. drug dosing on hours 1 and 5; format: functional
Mus musculus [7] = species: Mus musculus; test: Percent median survival time of treated leukemic mice compared to control; format: functional
Mus musculus [8] = test: Highest active dose in L1210 lymphoid leukemic mice after ip injection on days 1 and 5 at dose of 10 mg/kg; format: functional; conditions: route intraperitoneal
L1210 [9] = test: Log of initial tumor cell population minus log of tumor cell population at end of treatment after ip injection on days 1 and 5; format: functional, Mus musculus
Mus musculus [10] = test: Median survival time of treated/control animals x 100 after iv drug dosing on hours 1 and 5; format: functional
L1210 [11] = test: Log of initial tumor cell population minus log of tumor cell population at end of treatment after iv drug dosing on hours 1 and 5; format: functional, Mus musculus
Mus musculus [12] = test: Median survival time of treated/control animals x 100 after ip injection on days 1 and 5; format: functional
L1210 [13] = test: Toxic dose in L1210 murine lymphoid leukemia after ip injection on days 1 and 5 at 10 mg/kg; NT means not toxic; format: toxicity, organism-based; set-up: dose 10 mg/kg, route intraperitoneal; conditions: mouse, in vivo
Mus musculus [14] = test: Highest active dose in L1210 lymphoid leukemic mice after iv drug dosing on hours 1 and 5 at dose range of 2.5-5 mg/kg; format: functional
L1210 [15] = test: Toxic dose in L1210 murine lymphoid leukemia after iv drug dosing on hours 1 and 5; NT means not toxic at 5 mg/Kg; format: toxicity, organism-based; conditions: mouse, in vivo
Mus musculus [16] = test: Relative survival in RAW117-H10 cells implanted mice in comparison to control at dose of 3 mg/kg; format: functional
Mus musculus [17] = test: Relative survival in L1210 lymphoid leukemic mice after subcutaneous administration on days 1,4,6,8 at dose of 3 mg/kg; format: functional
[18] = Number of metastases in K1735-M2 murine melanoma cells after subcutaneous administration on days1,4,6,8 at dose of 3 mg/kg; format: functional, Mus musculus

**Q.** With `CCC1(O)C(=O)OCc2c1cc1n(c2=O)Cc2cc3c(F)cccc3nc2-1` (stereo not given) as the compound, how does the IC50 (DNA topoisomerase 1 [1]) read?
**A.** 160 nM

**Q.** With `CCC1(O)C(=O)OCc2c1cc1n(c2=O)Cc2cc3c(NC(=O)CN)c4c(cc3nc2-1)OCO4` (racemic) as the compound, how does the IC50 (DNA topoisomerase 1 [2]) read?
**A.** > 30000 nM

**Q.** And the IC50 (DNA topoisomerase 1 [1])?
**A.** 260 nM

**Q.** Which IC50 (DNA topoisomerase 1 [1]) does the source give for `CC[C@@]1(O)C(=O)OCc2c1cc1n(c2=O)Cc2cc3c([N+](=O)[O-])c4c(cc3nc2-1)OCO4` here?
**A.** 150 nM

**Q.** With `CCC1(O)C(=O)OCc2c1cc1n(c2=O)Cc2cc3c(N)cccc3nc2-1` (racemic) [RS-9-Aminocamptothecin] as the compound, how does the IC50 (DNA topoisomerase 1 [2]) read?
**A.** 840 nM

**Q.** And the IC50 (DNA topoisomerase 1 [1])?
**A.** 440 nM

**Q.** For `CCC1(O)C(=O)OCc2c1cc1n(c2=O)Cc2cc3cc(OC(=O)N4CCC(N5CCCCC5)CC4)ccc3nc2-1` (stereo not given), which IC50 (DNA topoisomerase 1 [1]) is on record?
**A.** 21000 nM

**Q.** For `CC[C@@]1(O)C(=O)OCc2c1cc1n(c2=O)Cc2cc3cc(C)ccc3nc2-1`, which IC50 (DNA topoisomerase 1 [1]) is on record?
**A.** 300 nM

**Q.** For `CC[C@](O)(C(=O)O)c1cc2n(c(=O)c1CO)Cc1cc3c(N)c4c(cc3nc1-2)OCO4`, which IC50 (DNA topoisomerase 1 [1]) is on record?
**A.** > 30000 nM

**Q.** With `CCC1(O)C(=O)OCc2c1cc1n(c2=O)Cc2cc3cc(C(=O)O)ccc3nc2-1` (stereo not given) as the compound, how does the IC50 (DNA topoisomerase 1 [1]) read?
**A.** 1000 nM

**Q.** With `CCC1(O)C(=O)OCc2c1cc1n(c2=O)Cc2cc3cc4c(cc3nc2-1)OCCO4` (racemic) as the compound, how does the IC50 (DNA topoisomerase 1 [1]) read?
**A.** 470 nM

**Q.** For `CC[C@@]1(O)C(=O)OCc2c1cc1n(c2=O)Cc2cc3c(O)cccc3nc2-1`, which IC50 (DNA topoisomerase 1 [1]) is on record?
**A.** 870 nM

**Q.** With `CCC1(O)C(=O)OCc2c1cc1n(c2=O)Cc2cc3c(Cl)c4c(cc3nc2-1)OCO4` (stereo not given) as the compound, how does the IC50 (DNA topoisomerase 1 [1]) read?
**A.** 61 nM

**Q.** With `CCC1(OC(=O)CN)C(=O)OCc2c1cc1n(c2=O)Cc2cc3cc(N)ccc3nc2-1.Cl` (racemic) as the compound, how does the KE (L1210 [3]) read?
**A.** >5.97

**Q.** What about the Toxic dose (L1210 [4]) of the same compound?
**A.** Non-toxic

**Q.** What about the Highest active dose (Mus musculus [5]) of the same compound?
**A.** 20 mg/kg

**Q.** And the Cures (Mus musculus [6])?
**A.** 0

**Q.** What about the T/C (Mus musculus [7]) of the same compound?
**A.** 225%

**Q.** With `CC1(O)C(=O)OCc2c1cc1n(c2=O)Cc2cc3ccccc3nc2-1` (racemic) as the compound, how does the IC50 (DNA topoisomerase 1 [1]) read?
**A.** 4000 nM

**Q.** With `CCC1(OC(=O)CN)C(=O)OCc2c1cc1n(c2=O)Cc2cc3c(N)cccc3nc2-1.Cl` (racemic) as the compound, how does the Highest active dose (Mus musculus [8]) read?
**A.** 10 mg/kg

**Q.** What about the KE (L1210 [9]) of the same compound?
**A.** -1

**Q.** And the T/C (Mus musculus [10])?
**A.** 168%

**Q.** What about the KE (L1210 [11]) of the same compound?
**A.** 1.67

**Q.** And the T/C (Mus musculus [12])?
**A.** 132%

**Q.** What about the Toxic dose (L1210 [13]) of the same compound?
**A.** Non-toxic

**Q.** What about the Highest active dose (Mus musculus [14]) of the same compound?
**A.** 5 mg/kg

**Q.** What about the IC50 (DNA topoisomerase 1 [2]) of the same compound?
**A.** 6800 nM

**Q.** And the Toxic dose (L1210 [15])?
**A.** Not toxic

**Q.** What about the IC50 (DNA topoisomerase 1 [1]) of the same compound?
**A.** 5500 nM

**Q.** With `CCC1(O)C(=O)OCc2c1cc1n(c2=O)Cc2cc3c(N)c4c(cc3nc2-1)OCO4` (racemic) as the compound, how does the T/C (Mus musculus [16]) read?
**A.** 1.6

**Q.** What about the IC50 (DNA topoisomerase 1 [2]) of the same compound?
**A.** 69 nM

**Q.** And the IC50 (DNA topoisomerase 1 [1])?
**A.** 76 nM

**Q.** What about the T/C (Mus musculus [17]) of the same compound?
**A.** 3

**Q.** What about the Control [18] of the same compound?
**A.** 25%

**Q.** With `CCC1(O)C(=O)OCc2c1cc1n(c2=O)Cc2cc3c4c(ccc3nc2-1)OCO4` (racemic) as the compound, how does the IC50 (DNA topoisomerase 1 [1]) read?
**A.** 3800 nM

**Q.** Which IC50 (DNA topoisomerase 1 [1]) does the source give for `CCC1(O)C(=O)OCc2c1cc1n(c2=O)Cc2cc3cc(OC(=O)N4CCN(C)CC4)ccc3nc2-1` (stereo not given) here?
**A.** 4400 nM

**Q.** Which IC50 (DNA topoisomerase 1 [1]) does the source give for `CCC1(O)C(=O)OCc2c1cc1n(c2=O)Cc2cc3c(Cl)c(Cl)ccc3nc2-1` (stereo not given) here?
**A.** 110 nM

**Q.** With `CC[C@@]1(O)C(=O)OCc2c1cc1n(c2=O)Cc2cc3cc(O)ccc3nc2-1` [HYDROXYCAMPTOTHECIN] as the compound, how does the IC50 (DNA topoisomerase 1 [1]) read?
**A.** 110 nM

**Q.** For `CC[C@@]1(O)C(=O)OCc2c1cc1n(c2=O)Cc2cc3cc([N+](=O)[O-])ccc3nc2-1`, which IC50 (DNA topoisomerase 1 [1]) is on record?
**A.** 640 nM

**Q.** For `CCC1(O)C(=O)OCc2c1cc1n(c2=O)Cc2cc3c(Cl)cccc3nc2-1` (racemic), which IC50 (DNA topoisomerase 1 [1]) is on record?
**A.** 190 nM

From ChEMBL document CHEMBL1126797 (J Med Chem, 1993)
